Data from patent publication US11168102B1, “Bicyclic heteroaryl compounds and uses thereof” (Revolution Medicines, Inc., priority 2019, dated 2021).

test system: cellular pERK in PC-9 cells (EGFR Ex19Del); assay: Potency assay: pERK (AlphaLISA SureFire Ultra p-ERK1/2) in PC-9 cells; type: cell-based; details: Homo sapiens, PC-9, 1 h, PC-9 cells (EGFR Ex19Del), 1 hour incubation, AlphaLISA SureFire Ultra p-ERK1/2; read-out: SOS1 pERK IC50

| Compound | IC50 [µM] |
| --- | --- |
| C[C@@H](Nc1ncnc2c1cc(Sc1ccccc1)c(=O)n2C)c1cccc(C(F)F)c1F [Example 30, 4-{[(1R)-1-[3-(difluoromethyl)-2-fluorophenyl]ethyl]amino}-8-methyl-6-(phenylsulfanyl)-7H,8H-pyrido[2,3-d]pyrimidin-7-one] | 2.76 |
| CCC1(O)CN(C(=O)c2cc3c(N[C@H](C)c4cccc(C(F)F)c4F)ncnc3n(C)c2=O)C1 [Example 26-8] | 0.252 |
| C[C@@H](Nc1ncnc2c1cc(C1(C)CCS(=O)(=O)CC1)c(=O)n2C)c1cccc(C(F)F)c1F [Example 37, 4-(4-{[(1R)-1-[3-(difluoromethyl)-2-fluorophenyl]ethyl]amino}-8-methyl-7-oxo-7H,8H-pyrido[2,3-d]pyrimidin-6-yl)-4-methyl-1λ^6-thiane-1,1-dione] | 0.0499 |
| C[C@@H](Nc1ncnc2c1cc(C1=CC[S+]([O-])CC1)c(=O)n2C)c1cccc(C(F)F)c1F (stereo partly drawn) [Example 22, 4-(((R)-1-(3-(difluoromethyl)-2-fluorophenyl)ethyl)amino)-8-methyl-6-(1-oxido-3,6-dihydro-2H-thiopyran-4-yl)pyrido[2,3-d]pyrimidin-7(8H)-one] | 0.122 |
| CC(=O)N1CCC(c2cc3c(N[C@H](C)c4cccc(C(F)F)c4CF)ncnc3n(C)c2=O)CC1 [Example 39, 6-(1-acetylpiperidin-4-yl)-4-{[(1R)-1-[3-(difluoromethyl)-2-(fluoromethyl)phenyl]ethyl]amino}-8-methyl-7H,8H-pyrido[2,3-d]pyrimidin-7-one] | 1.56 |
| Cc1nc(N[C@H](C)c2cccc(C(F)F)c2F)c2cc(C(=O)N3CCOCC3)c(=O)n(C)c2n1 [Example 26, 4-{[(1R)-1-[3-(difluoromethyl)-2-fluorophenyl]ethyl]amino}-2,8-dimethyl-6-(morpholine-4-carbonyl)-7H,8H-pyrido[2,3-d]pyrimidin-7-one] | 0.388 |
| C[C@@H](Nc1ncnc2c1cc(C1=CCOCC1)c(=O)n2C)c1cccc(C(F)(F)F)c1 [Example 5, (R)-6-(3,6-dihydro-2H-pyran-4-yl)-8-methyl-4-((1-(3-(trifluoromethyl)phenyl)ethyl)amino)pyrido[2,3-d]pyrimidin-7(8H)-one] | 0.134 |
| C[C@@H](Nc1ncnc2c1cc(C1(F)CCN(C3COC3)CC1)c(=O)n2C)c1cccc(C(F)F)c1F [Example 29-13] | 0.196 |
| C[C@@H](Nc1ncnc2c1cc(C1(N)CCS(=O)(=O)CC1)c(=O)n2C)c1cccc(C(F)F)c1F [Example 31-1] | 0.0456 |
| C[C@@H](Nc1ncnc2c1cc(C(=O)N1CCOCC13CCOC3)c(=O)n2C)c1cccc(C(F)F)c1F (stereo partly drawn) [Example 26-47] | 0.585 |
| C[C@@H](Nc1ncnc2c1cc(C(=O)N1CCC[C@@H]1c1nnn[nH]1)c(=O)n2C)c1cccc(C(F)F)c1F [Example 26-39] | > 10 |
| C[C@@H](Nc1ncnc2c1cc(C(=O)N1C3CCC1CN(C)C3)c(=O)n2C)c1cccc(C(F)F)c1F [Example 26-32] | 0.216 |
| COCC1COCCN1C(=O)c1cc2c(N[C@H](C)c3cccc(C(F)F)c3F)ncnc2n(C)c1=O (stereo partly drawn) [Example 26-37] | 0.747 |
| C[C@@H](Nc1ncnc2c1cc(C1=CCS(=N)(=O)CC1)c(=O)n2C)c1cccc(C(F)F)c1F (stereo partly drawn) [Example 23, 4-(((R)-1-(3-(difluoromethyl)-2-fluorophenyl)ethyl)amino)-6-(1-imino-1-oxido-1,2,3,6-tetrahydro-1λ^6-thiopyran-4-yl)-8-methylpyrido[2,3-d]pyrimidin-7(8H)-one] | 0.0485 |
| C[C@@H](Nc1ncnc2c1cc(C(=O)N1CC3(COC3)C1)c(=O)n2C)c1cccc(C(F)F)c1F [Example 26-4] | 0.423 |
| C[C@@H](Nc1ncnc2c1cc(C1=CCS(=O)(=O)CC1)c(=O)n2C)c1cccc(C(F)(F)C#N)c1 [Example 40, 2-{3-[(1R)-1-{[6-(1,1-dioxo-3,6-dihydro-2H-1λ^6-thiopyran-4-yl)-8-methyl-7-oxo-7H,8H-pyrido[2,3-d]pyrimidin-4-yl]amino}ethyl]phenyl}-2,2-difluoroacetonitrile] | 1.37 |
| C[C@@H](Nc1ncnc2c1cc(C(=O)N1CCCC13CCOC3)c(=O)n2C)c1cccc(C(F)F)c1F (stereo partly drawn) [Example 26-34] | 0.122 |
| C[C@@H](Nc1ncnc2c1cc(C(=O)N1CC[C@@H]3CCO[C@@H]31)c(=O)n2C)c1cccc(C(F)F)c1F [Example 26-17] | 0.195 |
| CC(=O)N1CCC(c2cc3c(N[C@H](C)c4cccc(C(F)F)c4C(F)F)ncnc3n(C)c2=O)CC1 [Example 38, 6-(1-acetylpiperidin-4-yl)-4-{[(1R)-1-[2,3-bis(difluoromethyl)phenyl]ethyl]amino}-8-methyl-7H,8H-pyrido[2,3-d]pyrimidin-7-one] | 0.137 |
| C[C@@H](Nc1ncnc2c1cc(C1=CC[P@@](C)(=O)CC1)c(=O)n2C)c1cccc(C(F)F)c1F [Example 1-33] | 0.201 |
| C[C@@H](Nc1ncnc2c1cc(C1=CCS(=O)(=O)CC1)c(=O)n2C)c1cccc(C(F)(F)C#N)c1F [Example 41, 2-{3-[(1R)-1-{[6-(1,1-dioxo-3,6-dihydro-2H-1λ^6-thiopyran-4-yl)-8-methyl-7-oxo-7H,8H-pyrido[2,3-d]pyrimidin-4-yl]amino}ethyl]-2-fluorophenyl}-2,2-difluoroacetonitrile] | 4.48 |
| CN=S1(=O)CCC(F)(c2cc3c(N[C@H](C)c4cccc(C(F)F)c4F)ncnc3n(C)c2=O)CC1 (single isomer, unassigned) [Example 51] | 0.0411 |
| C[C@@H](Nc1ncnc2c1cc(C1(N)CS(=O)(=O)C1)c(=O)n2C)c1cccc(C(F)F)c1F [Example 31-6] | 0.191 |

The next lines start with the values.

| IC50 [µM] | Compound |
| --- | --- |
| 0.0542 | COC1(c2cc3c(N[C@H](C)c4cccc(C(F)F)c4F)ncnc3n(C)c2=O)CCCN(C(C)=O)CC1 (stereo partly drawn) [Example 32-39] |
| 0.0921 | CO[C@@]1(c2cc3c(N[C@H](C)c4cccc(C(F)F)c4F)ncnc3n(C)c2=O)CCN(C(C)=O)[C@H](C)C1 [Example 32-28] |
| 0.0859 | COC1(c2cc3c(N[C@H](C)c4cccc(C(F)F)c4F)ncnc3n(C)c2=O)CCCS(=O)(=O)CC1 (stereo partly drawn) [Example 32-33] |
| 0.0869 | CC(=O)N1CCCC(C#N)(c2cc3c(N[C@H](C)c4cccc(C(F)F)c4F)ncnc3n(C)c2=O)CC1 (stereo partly drawn) [Example 36-9] |
| 0.0203 | COC1(c2cc3c(N[C@H](C)c4cccc(C(F)F)c4F)ncnc3n(C)c2=O)CCC(S(C)(=O)=O)CC1 (stereo partly drawn) [Example 32-59] |
| 0.0299 | CO[C@@]1(c2cc3c(N[C@H](C)c4cccc(C(F)F)c4F)ncnc3n(C)c2=O)CCN(S(C)(=O)=O)C1 [Example 32-17] |
| 0.0697 | COC1(c2cc3c(N[C@H](C)c4cccc(C(F)F)c4F)ncnc3n(C)c2=O)CCN(S(C)(=O)=O)CC1 [Example 32-24] |
| 0.0879 | C[C@@H](Nc1ncnc2c1cc(C1CS(=O)(=O)C1)c(=O)n2C)c1cccc(C(F)F)c1F [Example 33-16] |
| 0.0714 | COC1(c2cc3c(N[C@H](C)c4cccc(C(F)F)c4F)ncnc3n(C)c2=O)CN(C(C)=O)C1 [Example 32-7] |
| 0.0241 | COC1(c2cc3c(N[C@H](C)c4cccc(C(F)F)c4F)ncnc3n(C)c2=O)CCC2(CC1)CS(=O)(=NC1CC1)C2 (stereo partly drawn) [Example 68-1] |
| 0.0402 | COCCOC1(c2cc3c(N[C@H](C)c4cccc(C(F)F)c4F)ncnc3n(C)c2=O)CCS(=O)(=O)CC1 [Example 32-54] |
| 0.271 | CC(=O)N1CC[C@@H](c2cc3c(N[C@H](C)c4cccc(C(F)F)c4F)ncnc3n(C)c2=O)C1 [Example 33-14] |
| 0.0345 | COC1(c2cc3c(N[C@H](C)c4cccc(C(F)F)c4F)ncnc3n(C)c2=O)CCN(C(=O)C2CC2)CC1 [Example 32-11] |
| 0.172 | COC1(c2cc3c(N[C@H](C)c4cccc(C(F)F)c4F)ncnc3n(C)c2=O)C[C@H](C)N(C(C)=O)C1 (stereo partly drawn) [Example 32-38] |
| 0.18 | COC1(c2cc3c(N[C@H](C)c4cccc(C(F)F)c4F)ncnc3n(C)c2=O)C2CCC1CN(C(C)=O)C2 (stereo partly drawn) [Example 32-22] |
| 0.0388 | C[C@@H](Nc1ncnc2c1cc(C1(C#N)CCC3(CC1)CS(=O)(=O)C3)c(=O)n2C)c1cccc(C(F)F)c1F [Example 36-8] |
| 0.0108 | CO[C@]1(c2cc3c(N[C@H](C)c4cccc(C(F)F)c4F)nc(C)nc3n(C)c2=O)CCN(C(C)=O)C1 [Example 32-62] |
| 1.44 | COC1(c2cc3c(N[C@H](C)c4cccc(C(F)F)c4F)ncnc3n(C)c2=O)C2CC1CN(C(C)=O)C2 (stereo partly drawn) [Example 32-25] |

same assay, conditions: Homo sapiens, PC-9, 1 h, read-out: SOS1 pERK IC50

| Compound | IC50 [µM] |
| --- | --- |
| C[C@@H](Nc1ncnc2c1cc(C1(C#N)CCN(C)CC1)c(=O)n2C)c1cccc(C(F)F)c1F [Example 36-2] | 0.063 |

same assay, conditions: PC-9 cells (EGFR Ex19Del), 1 hour incubation, AlphaLISA SureFire Ultra p-ERK1/2; read-out: SOS1 pERK IC50

| Compound | IC50 [µM] |
| --- | --- |
| C[C@@H](Nc1ncnc2c1cc(C1=CCS(=O)(=NC3COC3)CC1)c(=O)n2C)c1cccc(C(F)F)c1F (stereo partly drawn) [Example 65, 4-(((R)-1-(3-(difluoromethyl)-2-fluorophenyl)ethyl)amino)-8-methyl-6-((S)-1-(oxetan-3-ylimino)-1-oxido-1,2,3,6-tetrahydro-1λ^6-thiopyran-4-yl)pyrido[2,3-d]pyrimidin-7(8H)-one] | 0.0668 |
| CN=S1(=O)CCC(c2cc3c(N[C@H](C)c4cccc(C(F)F)c4F)ncnc3n(C)c2=O)CC1 (single isomer, unassigned) [Example 64] | 0.131 |
| C[C@@H](Nc1ncnc2c1cc(C1(F)CCS(=O)(=O)C1)c(=O)n2C)c1cccc(C(F)F)c1F (stereo partly drawn) [Example 29-12] | 0.0536 |

The remaining lines, values ahead:

| IC50 [µM] | Compound |
| --- | --- |
| 0.0562 | C[C@@H](Nc1ncnc2c1cc(C1(C#N)CCC3(CC1)CS(=O)(=NC1CC1)C3)c(=O)n2C)c1cccc(C(F)F)c1F (single isomer, unassigned) [Example 58-2] |
| 0.0711 | COC1(c2cc3c(N[C@H](C)c4cccc(C(F)F)c4F)ncnc3n(C)c2=O)CCCS(=O)(=O)CC1 (stereo partly drawn) [Example 32-34] |
| 0.154 | COC1(c2cc3c(N[C@H](C)c4cccc(C(F)F)c4F)ncnc3n(C)c2=O)CCS(=O)(=O)C(C)C1 (stereo partly drawn) [Example 32-64] |
